{"source": "patent US20250155452A1", "about": "“NLRP3 Variants & Library Screen for NLRP3 Inhibitors with the Same” (BioAge Labs, Inc., priority 2023, published 2025)", "biological_target": "T1, MBP-ANLRP3-HIS (Homo sapiens, UniProt Q96P20, K142A)", "T1 construct": "made in house; host or cells: Sf21 (IPLB-Sf21-AE) insect cells", "assay": "ATPase activity, ADP-Glo Kinase Assay (Promega)", "type": "biochemical", "details": "read-out: Km of ATP", "method": "Peptide mass fingerprinting confirmed the protein identity while intact mass analysis confirmed the overall integrity of the protein and indicated the loss of the amino-terminal methionine. The theoretical molecular weight and isoelectric point (pI) of MBP-NLRP3-HIS are 145.30 kDa and 6.2, respectively. […] MBP-ANLRP3-HIS protein functionality was assessed based on ATPase activity using an ADP-Glo Kinase Assay (Promega). […] This protein construct was shown via its ATPase activity to have acceptable stability up to 2 hours in conditions mimicking one round of selection in the DEL screen.", "data": [{"smiles": "Nc1ncnc2c1ncn2[C@@H]1O[C@H](COP(=O)(O)OP(=O)(O)OP(=O)(O)O)[C@@H](O)[C@H]1O", "note": "[ATP]", "values": [{"measurement": "Km", "value": 3.08, "unit": "µM"}]}]}
